We go through two compounds from US10954503B2, “Antidotes for factor Xa inhibitors and methods of using the same” (Alexion Pharmaceuticals, Inc., priority 2007, dated 2021).

Structures are written as SMILES.

One data set relates to aPTT of human plasma. Description: aPTT clotting assay with MLA Electra 800 automatic coagulation timer. It counts as biochemical.
A further data set relates to thrombin generation. The data set can be described thus: Thrombin generation assay in platelet poor or platelet rich plasma (RFU). It is filed as biochemical, human. Particulars: betrixaban 250 nM; all rfVIIa concentrations tested.
The conditions of data set [1]: in vivo; cited from earlier work.

As to `COc1ccc(NC(=O)c2ccc(C(=N)N(C)C)cc2)c(C(=O)Nc2ccc(Cl)cn2)c1` [betrixaban, [2-({4-[(dimethylamino)iminomethyl]phenyl}carbonylamino)-5-methoxyphenyl]-N-(5-chloro(2-pyridyl))carboxamide], the “aPTT” value in the data set on aPTT of human plasma (300 nM Betrixaban alone) was determined as 61.8 s; with aPTT of human plasma (400 nM Betrixaban alone) it was 66.3 s. Besides, in the data set on aPTT of human plasma (400 nM betrixaban), the “extension of aPTT” value is listed as “more than two folds”. For the same compound, the “inhibition of fXa by betrixaban in the presence of rfVIIa” value with thrombin generation is recorded as “about 75%”.
Consider `O=C(NC[C@H]1CN(c2ccc(N3CCOCC3=O)cc2)C(=O)O1)c1ccc(Cl)s1` [rivaroxaban], for which the reported therapeutic concentration result in data set [1] is reported as “approximately 600 nM”.
